Values quoted from earlier work as cited in US7799760B2 (Centro de Ingenieria Genetica y Biotecnologia, priority 2001, dated 2010).

Test system: chronic neuropathic diabetic ulcers

## Becaplermin
In the third month
  rate of recurrence: about 30%
multicenter, controlled, randomized clinical trial in the USA, neuropathic foot ulcers with normal arterial blood supply, topical gel
  efficacy: 50%
